For series [1], the target named is T1, High affinity 3',5'-cyclic-AMP phosphodiesterase 7A (Homo sapiens, UniProt Q13946). Put plainly: Inhibition of recombinant PDE7A1 (unknown origin) expressed in Escherichia coli BL21 using [3H]cAMP as substrate preincubated for 15 mins followed by compound addition and measured after 1 hr by liquid scintillation method.
In series [2] the target is T2, Phosphodiesterase 7 (Homo sapiens, UniProt Q13946+Q9NP56). Kind of series: Inhibition of full length PDE7 (unknown origin) using FAM-cAMP as substrate by fluorescence based analysis. Type of series: protein assay.
Series [3] concerns the target T3, Phosphodiesterase 4 (Homo sapiens, UniProt P27815+Q08499+Q07343+Q08493). Kind of series: Inhibition of PDE4 (unknown origin) by fluorescent based assay. Type of series: protein assay.
Series [4] can be described thus: Inhibition of PDE8 (unknown origin) by fluorescent based assay. Also noted: species or system Homo sapiens.
Series [5] deals with T2, Phosphodiesterase 7. Kind of series: Inhibition of PDE7 (unknown origin) by fluorescent based assay. Type of series: protein assay.
The target in series [6] is 3',5'-cyclic-AMP phosphodiesterase 7B (Homo sapiens, UniProt Q9NP56). Put plainly: Inhibition of PDE7B (unknown origin) by 3H-cAMP scintillation proximity assay. (In general: SPA uses beads or plates that emit light when radiolabelled molecules are held near them.)
The nature of series [7]: Inhibition of human PDE4 catalytic domain expressed in Escherichia coli.
Series [8] in a line: Selectivity index, ratio of IC50 for inhibition of PDE7A1 (130 to 482 residues) (unknown origin) expressed in Escherichia coli BL21 to IC50 for inhibition of recombinant PDE4D2 (86 to 413 residues) (unknown origin) expressed in Escherichia coli BL21.
The target in series [9] is T2, Phosphodiesterase 7. Kind of series: Inhibition of recombinant PDE7 (unknown origin) expressed in Escherichia coli BL21 (DE3) using [3H]cAMP as substrate preincubated for 15 mins followed by compound addition and incubated for 1 hr by liquid scintillation method.
For series [10], the target named is T2, Phosphodiesterase 7. Kind of series: Inhibition of PDE7 (unknown origin). Type of series: protein assay.
The target of series [11] is T4, Glycogen synthase kinase-3 beta (Homo sapiens, UniProt P49841). Put plainly: Inhibition of GSK-3beta (unknown origin).
The target in series [12] is T1, High affinity 3',5'-cyclic-AMP phosphodiesterase 7A. Kind of series: Inhibition of PDE7A (unknown origin).
The nature of series [13]: Brain to plasma ratio in iv dosed rat measured after 30 mins. In kind it is ADME, organism-based. Conditions: read-out: BPR.
The next series concerns the target Phosphodiesterase 3 (Homo sapiens, UniProt Q14432+Q13370). Kind of series: Inhibition of human recombinant PDE3 expressed in Escherichia coli.
The target of series [14] is T4, Glycogen synthase kinase-3 beta. Kind of series: Inhibition of GSK3beta (unknown origin) activity assessed as […] by ADP-Glo Kinase Assay. (In general: ADP-Glo turns the ADP formed in a reaction into a luminescent signal.)
For another series, the species on record is Homo sapiens. Put plainly: Selectivity index, ratio of IC50 for human PDE4B1 S133D mutant to IC50 for human PDE4D7 S129D mutant.
Series [15] can be described thus: Half life in rat. In kind it is ADME. Conditions: in vivo.
For series [16], the target named is T3, Phosphodiesterase 4. Kind of series: Inhibition of human recombinant PDE4. Type of series: protein assay.
A short description of series [17]: Oral bioavailability in rat. In kind it is ADME, organism-based. Conditions: in vivo.
Series [18] in a line: Oral bioavailability in mouse at 2.5 mg/kg. Type of series: ADME, organism-based. Conditions: in vivo.
Series [19] has as its target 3',5'-cyclic-AMP phosphodiesterase 4D (Homo sapiens, UniProt Q08499). Put plainly: Inhibition of human PDE4D3.
A short description of series [20]: Aqueous solubility of compound in PBS at pH 6.5. Type of series: physicochemical.
Series [21] deals with 3',5'-cyclic-AMP phosphodiesterase 4B (Homo sapiens, UniProt Q07343). Kind of series: Inhibition of PDE4B1 (unknown origin).
The target of series [22] is T1, High affinity 3',5'-cyclic-AMP phosphodiesterase 7A. Kind of series: Inhibition of recombinant PDE7A1 (130 to 482 residues) (unknown origin) expressed in Escherichia coli BL21 (DE3) using [3H]cAMP as substrate incubated for 15 mins by liquid scintillation method.
Series [23] addresses 3',5'-cyclic-AMP phosphodiesterase 4A (Homo sapiens, UniProt P27815). Kind of series: Inhibition of PDE4A1 (unknown origin).

SMILES strings stand for the structures. In brackets after ≈: the same amount, converted by molar mass.

Chain of 3',5'-cyclic-AMP phosphodiesterase 7B (Q9NP56 whole entry, the tested form may be a part): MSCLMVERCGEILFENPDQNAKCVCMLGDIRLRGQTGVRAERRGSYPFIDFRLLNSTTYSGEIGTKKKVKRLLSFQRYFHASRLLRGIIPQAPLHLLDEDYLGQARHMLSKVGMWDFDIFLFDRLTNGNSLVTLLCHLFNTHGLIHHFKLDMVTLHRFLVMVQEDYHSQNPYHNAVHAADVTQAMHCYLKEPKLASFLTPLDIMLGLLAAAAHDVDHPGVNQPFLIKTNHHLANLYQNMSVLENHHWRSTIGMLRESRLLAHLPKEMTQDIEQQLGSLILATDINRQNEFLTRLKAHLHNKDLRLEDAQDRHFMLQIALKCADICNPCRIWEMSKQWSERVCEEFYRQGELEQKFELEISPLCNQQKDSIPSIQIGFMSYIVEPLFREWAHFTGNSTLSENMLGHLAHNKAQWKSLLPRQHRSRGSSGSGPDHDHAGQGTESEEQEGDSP
Chain of 3',5'-cyclic-AMP phosphodiesterase 4D (Q08499 whole entry): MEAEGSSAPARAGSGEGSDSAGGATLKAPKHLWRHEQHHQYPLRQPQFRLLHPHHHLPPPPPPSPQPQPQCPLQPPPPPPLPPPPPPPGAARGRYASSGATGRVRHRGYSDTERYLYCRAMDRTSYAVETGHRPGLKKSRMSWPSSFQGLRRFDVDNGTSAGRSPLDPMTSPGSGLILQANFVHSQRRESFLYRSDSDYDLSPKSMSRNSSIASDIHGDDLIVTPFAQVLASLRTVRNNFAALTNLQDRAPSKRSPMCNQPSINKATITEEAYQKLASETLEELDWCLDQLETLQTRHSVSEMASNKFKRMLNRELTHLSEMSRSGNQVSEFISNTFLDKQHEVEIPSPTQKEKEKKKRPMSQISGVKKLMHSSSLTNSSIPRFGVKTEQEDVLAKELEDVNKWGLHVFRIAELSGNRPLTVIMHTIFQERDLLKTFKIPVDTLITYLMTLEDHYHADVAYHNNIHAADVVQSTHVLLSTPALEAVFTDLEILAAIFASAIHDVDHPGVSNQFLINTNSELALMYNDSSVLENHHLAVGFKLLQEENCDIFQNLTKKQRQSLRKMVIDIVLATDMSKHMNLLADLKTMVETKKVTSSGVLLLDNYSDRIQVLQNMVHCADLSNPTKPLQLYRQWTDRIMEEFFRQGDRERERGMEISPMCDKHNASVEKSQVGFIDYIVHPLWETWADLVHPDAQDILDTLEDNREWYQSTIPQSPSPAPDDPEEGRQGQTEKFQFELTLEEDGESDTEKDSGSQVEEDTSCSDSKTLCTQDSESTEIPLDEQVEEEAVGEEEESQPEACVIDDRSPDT
T4 sequence (P49841 whole entry): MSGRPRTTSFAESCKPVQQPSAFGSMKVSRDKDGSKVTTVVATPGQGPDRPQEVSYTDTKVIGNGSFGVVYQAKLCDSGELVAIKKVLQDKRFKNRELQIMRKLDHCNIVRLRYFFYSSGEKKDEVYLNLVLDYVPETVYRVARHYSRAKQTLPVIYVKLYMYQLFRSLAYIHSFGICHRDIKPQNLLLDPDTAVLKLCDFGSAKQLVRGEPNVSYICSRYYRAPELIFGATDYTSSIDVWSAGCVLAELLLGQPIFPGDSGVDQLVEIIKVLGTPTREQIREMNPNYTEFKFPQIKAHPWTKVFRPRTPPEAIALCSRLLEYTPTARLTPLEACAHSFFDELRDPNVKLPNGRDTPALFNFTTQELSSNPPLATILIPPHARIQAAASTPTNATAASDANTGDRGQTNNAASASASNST
T1 sequence (Q13946 whole entry): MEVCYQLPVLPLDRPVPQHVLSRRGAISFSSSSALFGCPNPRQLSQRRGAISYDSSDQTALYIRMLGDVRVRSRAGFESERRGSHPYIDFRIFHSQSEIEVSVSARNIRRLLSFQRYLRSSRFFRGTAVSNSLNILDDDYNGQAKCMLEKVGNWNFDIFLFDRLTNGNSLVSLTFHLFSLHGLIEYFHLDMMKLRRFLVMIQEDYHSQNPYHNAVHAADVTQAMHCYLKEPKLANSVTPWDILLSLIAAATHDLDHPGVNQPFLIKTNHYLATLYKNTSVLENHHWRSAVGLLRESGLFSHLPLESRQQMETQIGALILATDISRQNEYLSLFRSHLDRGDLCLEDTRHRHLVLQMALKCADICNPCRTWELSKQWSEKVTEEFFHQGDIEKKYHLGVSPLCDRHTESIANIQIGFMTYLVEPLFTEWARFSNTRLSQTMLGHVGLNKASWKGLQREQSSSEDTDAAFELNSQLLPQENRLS
Chain of 3',5'-cyclic-AMP phosphodiesterase 4B (Q07343 whole entry, the tested form may be a part): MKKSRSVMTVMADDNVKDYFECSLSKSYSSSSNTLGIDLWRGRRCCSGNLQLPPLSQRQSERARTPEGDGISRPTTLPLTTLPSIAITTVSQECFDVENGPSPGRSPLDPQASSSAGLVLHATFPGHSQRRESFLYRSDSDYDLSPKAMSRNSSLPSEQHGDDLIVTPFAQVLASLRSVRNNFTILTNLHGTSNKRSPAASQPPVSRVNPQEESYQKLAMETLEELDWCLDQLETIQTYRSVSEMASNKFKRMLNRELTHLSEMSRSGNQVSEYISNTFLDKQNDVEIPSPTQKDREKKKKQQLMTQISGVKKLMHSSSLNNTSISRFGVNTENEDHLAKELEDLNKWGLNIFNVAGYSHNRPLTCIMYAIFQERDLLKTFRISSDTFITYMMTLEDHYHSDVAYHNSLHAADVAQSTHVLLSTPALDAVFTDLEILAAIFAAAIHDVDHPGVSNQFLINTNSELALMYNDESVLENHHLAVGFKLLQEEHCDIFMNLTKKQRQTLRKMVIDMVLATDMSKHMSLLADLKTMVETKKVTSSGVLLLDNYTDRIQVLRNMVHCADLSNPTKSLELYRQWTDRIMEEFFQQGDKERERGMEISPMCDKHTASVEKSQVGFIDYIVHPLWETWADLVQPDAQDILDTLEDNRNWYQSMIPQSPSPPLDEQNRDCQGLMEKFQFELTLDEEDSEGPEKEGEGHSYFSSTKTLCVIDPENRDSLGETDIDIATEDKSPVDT
Chain of 3',5'-cyclic-AMP phosphodiesterase 4A (P27815 whole entry): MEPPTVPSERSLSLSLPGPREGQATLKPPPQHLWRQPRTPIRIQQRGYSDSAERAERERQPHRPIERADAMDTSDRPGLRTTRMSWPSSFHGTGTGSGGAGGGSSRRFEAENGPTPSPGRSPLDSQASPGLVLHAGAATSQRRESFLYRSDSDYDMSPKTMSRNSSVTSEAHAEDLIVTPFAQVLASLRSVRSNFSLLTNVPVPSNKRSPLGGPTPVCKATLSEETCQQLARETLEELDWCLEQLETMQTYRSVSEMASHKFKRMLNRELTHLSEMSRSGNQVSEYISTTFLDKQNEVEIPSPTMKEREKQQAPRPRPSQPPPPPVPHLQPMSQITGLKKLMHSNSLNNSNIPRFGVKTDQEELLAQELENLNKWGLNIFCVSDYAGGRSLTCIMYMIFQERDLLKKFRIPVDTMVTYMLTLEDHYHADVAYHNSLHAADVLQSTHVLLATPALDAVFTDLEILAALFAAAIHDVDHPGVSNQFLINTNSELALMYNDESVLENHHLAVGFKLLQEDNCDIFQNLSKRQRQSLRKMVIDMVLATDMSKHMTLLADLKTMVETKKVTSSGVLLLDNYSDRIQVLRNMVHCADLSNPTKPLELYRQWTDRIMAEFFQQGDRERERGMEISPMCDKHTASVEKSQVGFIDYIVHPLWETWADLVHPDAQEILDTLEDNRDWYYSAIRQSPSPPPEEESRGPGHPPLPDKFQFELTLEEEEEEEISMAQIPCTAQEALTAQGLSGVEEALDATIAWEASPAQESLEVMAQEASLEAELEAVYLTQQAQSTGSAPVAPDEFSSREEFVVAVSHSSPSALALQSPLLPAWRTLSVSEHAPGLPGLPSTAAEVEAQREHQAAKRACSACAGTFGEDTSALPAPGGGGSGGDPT

Broadly, the IC50 is the concentration at which inhibition is half-maximal. As for `O=C1Nc2c(Cl)ccc(Oc3ccccc3-c3nnn[nH]3)c2C2(CCCCC2)N1`, the IC50 in series [1] was < 0.15 nM.
Turning to `COc1ccc(Cn2c(=O)c3cc(OCC#N)ccc3n(C3CC[S+]([O-])CC3)c2=O)cc1OC` (stereo not given), the 50% inhibitory concentration (IC50) against Phosphodiesterase 7 [2] was found to be 6.1 nM.
Take `COc1cc(CN(Cc2ccc(OC)cc2OC)c2ncnc3c2nnn3C2CC(C(F)(F)F)CCC2(F)F)cc(OC)c1` (stereo not given): the 50% inhibitory concentration (IC50) at Phosphodiesterase 7 [2] is < 10 nM; on Phosphodiesterase 4 [3] it was 11900 nM.
Turning to `COc1ccc(Cn2c(=O)c3cc(OC(CF)CF)ccc3n(C3CCN(C=O)CC3)c2=O)cc1OC`, the 50% inhibitory concentration (IC50) in series [4] is 140 nM; on Phosphodiesterase 7 [5] it was 39 nM.
In the case of `COc1ccc(C2=NN(C3CCN(C(=O)N4CCOCC4)CC3)C(=O)[C@@H]3CC=CC[C@H]23)cc1Cl`, the results for the half-maximal inhibitory concentration (IC50) in series [6] and in series [7] were 23 nM and 2.3 nM, respectively. The Ratio IC50 in series [8] was found to be 10.
As to `O=C(Nc1ccc(N2CCOCC2)cc1)c1cn(Cc2c(F)cccc2F)c2cccnc2c1=O`, at Phosphodiesterase 4 [3], the half-maximal inhibitory concentration (IC50) was determined as 380 nM.
For `FC(F)(F)c1cc(N2C(=S)Nc3ccccc3C23CCc2ccccc2N3)cc(C(F)(F)F)c1` (stereo not given), the IC50 in series [1] is < 171 nM.
On to `O=S1(=O)N=C(O)c2ccccc2N1`, for which the 50% inhibitory concentration (IC50) against Phosphodiesterase 7 [2] turned out to be 8000 nM.
Consider `O=C1Nc2c(Cl)ccc(OCCO)c2C2(CCCCC2)N1`, for which the half-maximal inhibitory concentration (IC50) at Phosphodiesterase 7 [9] and against Phosphodiesterase 7 [2] was 55 nM in each case.
For the compound `COc1ccc(/C(CSc2nc3ccccc3c(=O)n2-c2ccccc2)=N\O)cc1`, the concentration for half-maximal inhibition (IC50) against Phosphodiesterase 7 [2] came out at 1150 nM.
Take `CCOc1cc2cc(CO)c(CO)c(-c3ccnc(-n4nc(-c5cccnc5)c5ccccc5c4=O)c3)c2cc1OCC`: the half-maximal inhibitory concentration (IC50) in series [6] was 1700 nM; in series [7], 130 nM. In addition, the Ratio IC50 in [8] came to 13.
For the compound `CCn1c(NC(C)C)nc2c(C3CCN(C(=O)c4cccc(C)n4)C3)csc2c1=O` (stereo not given), the concentration for half-maximal inhibition (IC50) against Phosphodiesterase 7 [10] stood at 3.3 nM; at Phosphodiesterase 4 [3], 46 nM.
`COc1cc(-c2nc(NC3CCCC3)c3ccsc3n2)cc(OC)c1OC` came in with an IC50 at Phosphodiesterase 7 [2] of 20 nM.
As to `COc1ccc(-c2cc3c(n2-c2ccc(S(=O)(=O)Nc4nc(C)cc(C)n4)cc2)CCC(N2CCN(C)CC2)C3)cc1C` (stereo not given), the figures for the half-inhibitory concentration (IC50) in series [6] and in [7] were 14 nM and 630 nM, respectively. Further, in series [8], the Ratio IC50 is 45.
On to `Cn1nc(-c2ccc(Cl)cc2)s/c1=N\C1CCCCC1`, for which the 50% inhibitory concentration (IC50) against Phosphodiesterase 7 [2] amounted to 1500 nM.
As for `OCC/N=c1/nc(-c2ccccc2)n(-c2ccccc2)s1`, in series [11], half-maximal inhibition (IC50) was put at 1950 nM.
Turning to `CSc1nc2c(C)cccc2c(=O)n1-c1c(F)cccc1F`, the half-inhibitory concentration (IC50) worked out at 130 nM at Phosphodiesterase 7 [2] and 1400 nM at Phosphodiesterase 4 [3].
For the compound `CC(C)(C)CSc1nc2ccccc2c(=O)n1-c1ccccc1`, the IC50 against Phosphodiesterase 7 [2] is given as 100 nM.
As to `COc1ccc(C2=NN(C3CCCC3)C(=O)[C@@H]3CC=CC[C@H]23)cc1Cl`, the IC50 in series [12] is 18.6 nM; at Phosphodiesterase 3 it was 0.76 nM. Also, the Kp at 0.5 h in [13] worked out at 1.69.
Turning to `c1ccc(-c2n/c(=N/CCN3CCOCC3)sn2-c2ccccc2)cc1`, the IC50 is 880 nM in series [14] and 1590 nM against Phosphodiesterase 7 [5].
With `Cc1ccc([N+](=O)[O-])cc1S(=O)(=O)N(C)C`, 620 nM corresponded to half-maximal inhibition in series [6] (IC50). For the same compound, the Ratio IC50 in the series filed under Homo sapiens was 238.
By half-life is commonly meant how long it takes for the measured level to halve. High values mean slow decline, low ones rapid decline. Usually bioavailability stands for the share of a dose that reaches the circulation, judged against a reference dose that is usually intravenous. Read a high bioavailability as much systemic uptake. For `CN1CCN(C(=O)c2ccc(-c3cc(Cl)c4c(c3)C3(CCCCC3)NC(=O)N4)cc2)CC1`, the IC50 turned out to be 14 nM at Phosphodiesterase 7 [9] and 1700 nM at Phosphodiesterase 4 [16]. The half-life in series [15] is 90 min. The compound also had a bioavailability in [17] of 27%.
As to `O=C1Nc2c(Cl)cc3nc(CN4CCNCC4)oc3c2C2(CCCCC2)N1`, the half-inhibitory concentration (IC50) in series [1] was < 10 nM.
As to `COc1ccc(Cn2c(=O)c3cc(OCC#N)ccc3n(C3CCSCC3)c2=O)cc1OC`, the half-maximal inhibitory concentration (IC50) at Phosphodiesterase 7 [2] is reported as 5.5 nM.
As to `Cn1nc(-c2ccc(C(N)=O)cc2)s/c1=N\[C@@H]1CCC[C@@H](O)C1`, the bioavailability in series [18] was found to be 38.5%. Besides, the IC50 in series [1] turned out to be 616 nM; in series [19], 88 nM.
As to `O=C1Nc2c(Cl)cc(-c3ccccc3)cc2C2(CCCCC2)N1`, the half-inhibitory concentration (IC50) on Phosphodiesterase 7 [9] was 16 nM; on Phosphodiesterase 4 [16], 1420 nM.
In the case of `CC(C)Cn1c(=O)n(C)c(=O)c2nc[nH]c21` [ISOBUTYLMETHYLXANTHINE], at Phosphodiesterase 7 [5], the IC50 was determined as 8100 nM.
Same read-out and setting: for `COc1cc(Cn2c(=O)c3cc(OC(CF)CF)ccc3n(C3CCN(C=O)CC3)c2=O)ccc1OCC(=O)N1CCCCC1` the value was 46 nM.
For orientation: solubility means the dissolved amount per volume that the medium holds. A high value points to much dissolved substance. `CCOC(=O)c1sc(Nc2nc(NCc3ccc(S(N)(=O)=O)cc3)c3c(ncn3CC)n2)nc1C` showed a solubility in [20] of 5 µg/mL (≈ 9.68 µM).
Turning to `O=c1c2ccccc2[nH]c(=S)n1-c1ccccc1`, 8800 nM corresponded to half-maximal inhibition in series [6] (IC50).
At Phosphodiesterase 7 [2], `Fc1cc2nc(S)[nH]c(=S)c2cc1F` came in with a 50% inhibitory concentration (IC50) of 74 nM.
For the compound `S=c1[nH]c2ccccc2c(=S)n1-c1ccccc1`, on Phosphodiesterase 7 [2], the half-inhibitory concentration (IC50) was 550 nM.
`CCCCc1nc2c(c(=O)n(C)c(=O)n2C)n1CCCC(=O)Nc1cc(C(C)(C)C)ccc1O`: half-maximal inhibition in series [21] (IC50) required 543 nM.
`Cn1nc(-c2ccc(C(N)=O)cc2)s/c1=N\C1CCCCC1`: the 50% inhibitory concentration (IC50) in series [1] was 15300 nM; in [19], 61 nM.
On to `Br.c1ccc(-c2n/c(=N/CCC3CCOCC3)sn2-c2ccccc2)cc1`, for which the IC50 was 1590 nM at Phosphodiesterase 7 [2] and > 10000 nM on Phosphodiesterase 3.
Take `CCOc1ccc(-c2c(C(C)(C)O)oc(=O)c3ccccc23)cc1OC1CCCC1`: the half-maximal inhibitory concentration (IC50) in [22] was determined as 1400 nM.
Take `CCOC(=O)c1cc2c(=O)n3ccccc3nc2n(C2CCCCC2)/c1=N\C(C)=O`: the figures for the IC50 in series [22], in [23] and in series [21] were 142 nM, 112 nM and 305 nM, respectively.
With `CN(C)C(=O)CCN(C)C(=O)c1nc2cc(Cl)c3c(c2o1)C1(CCCCC1)NC(=O)N3`, the 50% inhibitory concentration (IC50) in series [1] was < 10 nM.
As to `Cn1nc(-c2ccc(Cl)cc2)s/c1=N\c1ccc(F)c(C(=O)O)c1`, the bioavailability in series [18] stood at 49.3%. Further, the concentration for half-maximal inhibition (IC50) is 3970 nM in [1] and 160 nM in series [19].
For `CCn1ncc2c(NC3CCOCC3)c(-c3nnc(Cc4sc(C)nc4C)o3)cnc21` [GSK-356278], the half-inhibitory concentration (IC50) in [12] turned out to be 0.76 nM; on Phosphodiesterase 3, 5 nM.
Turning to `N#Cc1cc(Cn2c(=O)c3cc(OC(CF)CF)ccc3n(C3CCN(C=O)CC3)c2=O)ccc1-c1ccccc1`, the half-inhibitory concentration (IC50) turned out to be 15 nM in series [4] and 37 nM on Phosphodiesterase 7 [5].
As to `c1ccc(-c2n/c(=N/Cc3cccnc3)sn2-c2ccccc2)cc1`, the values for the IC50 (in [14]; against Phosphodiesterase 7 [5]) were 1280 nM and 380 nM, respectively.
Consider `O=C1Nc2c(Cl)cccc2C2(CCCCC2)N1`, for which, on Phosphodiesterase 7 [9], the 50% inhibitory concentration (IC50) is on record as 170 nM.
With `N=c1nc(-c2ccccc2)n(-c2ccccc2)s1`, the concentration for half-maximal inhibition (IC50) turned out to be 6300 nM in [14] and 1020 nM on Phosphodiesterase 7 [5].

For the origin of these results see ChEMBL document CHEMBL5620343, “Advances in the development of phosphodiesterase 7 inhibitors” (Eur J Med Chem, 2023).
